Holding throughout (assay type): biochemical
Test [1] deals with T1, MSD1 (MnSOD; manganese SOD1) (Arabidopsis thaliana, UniProt O81235, Y63F).
T1 sequence (O81235 1-231 Y63F): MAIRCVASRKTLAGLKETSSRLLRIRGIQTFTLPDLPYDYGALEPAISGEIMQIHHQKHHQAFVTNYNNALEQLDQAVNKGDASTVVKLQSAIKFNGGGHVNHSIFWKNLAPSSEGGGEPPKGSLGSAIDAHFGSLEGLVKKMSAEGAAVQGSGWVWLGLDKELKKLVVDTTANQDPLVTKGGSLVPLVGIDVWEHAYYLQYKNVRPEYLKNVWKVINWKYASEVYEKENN
Kind of test: SOD activity after peroxynitrite treatment. The note with it: covalent (tyrosine nitration); 20 min, RT, dark; potassium phosphate pH 8.0.

In test [2] the target is T2, MSD1 (MnSOD; manganese SOD1) (Arabidopsis thaliana, UniProt O81235).
T2 sequence (O81235 1-231): T1 sequence (O81235 1-231 Y63F) with F63Y
Kind of test: SOD activity after peroxynitrite treatment (cytochrome c reduction). As to conditions: covalent (tyrosine nitration, mainly Tyr63); 20 min, RT, dark; potassium phosphate pH 8.0.

Test [3] concerns the target T3, FSD3 (FeSOD3; chloroplastic iron SOD3) (Arabidopsis thaliana, UniProt Q9FMX0).
T3 sequence (Q9FMX0 1-263 limits assumed): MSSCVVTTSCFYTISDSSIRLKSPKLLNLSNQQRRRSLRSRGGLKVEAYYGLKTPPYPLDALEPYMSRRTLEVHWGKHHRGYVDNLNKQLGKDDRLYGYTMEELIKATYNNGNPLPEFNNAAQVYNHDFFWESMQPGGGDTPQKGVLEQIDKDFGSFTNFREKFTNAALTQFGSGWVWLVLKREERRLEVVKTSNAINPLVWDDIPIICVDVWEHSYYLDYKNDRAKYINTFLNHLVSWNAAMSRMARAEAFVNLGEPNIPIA
The description is as above. As to conditions: covalent (tyrosine nitration); 20 min, RT, dark; potassium phosphate pH 8.0.

For test [4], the target named is T4, CSD3 (Cu/ZnSOD3; peroxisomal copper/zinc SOD3) (Arabidopsis thaliana, UniProt Q9FK60).
T4 sequence (Q9FK60 1-164): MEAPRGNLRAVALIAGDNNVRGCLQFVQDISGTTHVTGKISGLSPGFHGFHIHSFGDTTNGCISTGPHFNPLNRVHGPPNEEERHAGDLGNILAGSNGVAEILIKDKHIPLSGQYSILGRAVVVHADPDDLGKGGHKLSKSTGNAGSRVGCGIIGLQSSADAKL
Described as above. The note with it: covalent (tyrosine nitration, Tyr115); 20 min, RT, dark; potassium phosphate pH 8.0.

Test [5] concerns the target T3, FSD3 (FeSOD3; chloroplastic iron SOD3). Put plainly: NBT-formazan SOD assay (xanthine/xanthine oxidase). As to conditions: superoxide generated by xanthine oxidase; 570 nm.
The next test deals with T5, CSD1 (Cu/ZnSOD1) (Arabidopsis thaliana, UniProt P24704).
T5 sequence (P24704 1-152): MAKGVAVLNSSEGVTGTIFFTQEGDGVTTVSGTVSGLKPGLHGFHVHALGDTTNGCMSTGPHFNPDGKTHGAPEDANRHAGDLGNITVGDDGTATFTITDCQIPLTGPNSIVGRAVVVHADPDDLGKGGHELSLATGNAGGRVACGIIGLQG
Kind of test: NBT-formazan SOD assay (xanthine/xanthine oxidase). As to conditions: superoxide generated by xanthine oxidase; 570 nm.

Test [6] deals with T2, MSD1 (MnSOD; manganese SOD1). Put plainly: NBT-formazan SOD assay (xanthine/xanthine oxidase). As to conditions: superoxide generated by xanthine oxidase; 570 nm.
Another test concerns the target T6, FSD2 (Arabidopsis thaliana, UniProt Q9LU64).
T6 sequence (Q9LU64 1-305 limits assumed): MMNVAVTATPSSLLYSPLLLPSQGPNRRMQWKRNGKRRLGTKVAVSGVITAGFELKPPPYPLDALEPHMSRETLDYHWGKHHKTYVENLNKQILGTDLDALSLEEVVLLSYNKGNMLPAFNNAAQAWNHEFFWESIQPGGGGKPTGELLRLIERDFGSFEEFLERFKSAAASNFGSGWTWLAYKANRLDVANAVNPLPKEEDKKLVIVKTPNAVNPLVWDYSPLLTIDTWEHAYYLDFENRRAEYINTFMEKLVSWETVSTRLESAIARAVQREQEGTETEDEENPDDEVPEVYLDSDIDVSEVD
Put plainly: NBT-formazan SOD assay (xanthine/xanthine oxidase). The note with it: superoxide generated by xanthine oxidase; 570 nm.

For test [7], the target named is T4, CSD3 (Cu/ZnSOD3; peroxisomal copper/zinc SOD3). Put plainly: NBT-formazan SOD assay (xanthine/xanthine oxidase). As to conditions: superoxide generated by xanthine oxidase; 570 nm.
Another test addresses T7, FSD1 (Arabidopsis thaliana, UniProt P21276).
T7 sequence (P21276 1-212): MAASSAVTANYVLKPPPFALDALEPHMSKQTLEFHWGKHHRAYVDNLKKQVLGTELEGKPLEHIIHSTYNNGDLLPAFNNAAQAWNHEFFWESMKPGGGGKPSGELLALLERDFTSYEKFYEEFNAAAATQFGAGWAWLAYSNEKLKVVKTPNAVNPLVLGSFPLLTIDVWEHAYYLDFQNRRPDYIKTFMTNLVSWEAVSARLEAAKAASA
Kind of test: NBT-formazan SOD assay (xanthine/xanthine oxidase). As to conditions: superoxide generated by xanthine oxidase; 570 nm.

The target of the next test is T8, CSD2 (Cu/ZnSOD2) (Arabidopsis thaliana, UniProt O78310).
T8 sequence (O78310 1-216 limits assumed): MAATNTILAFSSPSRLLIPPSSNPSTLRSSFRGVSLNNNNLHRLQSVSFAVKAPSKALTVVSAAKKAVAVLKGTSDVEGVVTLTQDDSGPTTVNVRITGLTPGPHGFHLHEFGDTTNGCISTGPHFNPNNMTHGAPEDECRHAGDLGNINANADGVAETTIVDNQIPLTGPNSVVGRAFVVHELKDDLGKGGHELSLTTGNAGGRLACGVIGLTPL
Kind of test: NBT-formazan SOD assay (xanthine/xanthine oxidase). As to conditions: superoxide generated by xanthine oxidase; 570 nm.

Two compounds from publication PMC4321555, “Differential inhibition of Arabidopsis superoxide dismutases by peroxynitrite-mediated tyrosine nitration” (Journal of Experimental Botany, 2014) can be followed below.

Numbering of substitutions follows the chain as printed.

On to `O=NOO` [peroxynitrite], for which the % inhibition (as a rule, the change of the read-out against control, counted positive when it falls) at 500 μM in [1] was 30%; in test [2], ~ 90%. Also, the “% remaining activity at 500 μM” value in test [3] and in test [4] was 65% each time.
`[O]O` [superoxide]: the “NBT-formazan SOD assay (xanthine/xanthine oxidase)” value in [5] is “The activity of the purified, recombinant SODs was determined using the nitroblue tetrazolium (NBT)–formazan method”; on CSD1 (Cu/ZnSOD1), “The activity of the purified, recombinant SODs was determined using the nitroblue tetrazolium (NBT)–formazan method”; in [6], “The activity of the purified, recombinant SODs was determined using the nitroblue tetrazolium (NBT)–formazan method”; on FSD2, “The activity of the purified, recombinant SODs was determined using the nitroblue tetrazolium (NBT)–formazan method”; in test [7] it was “The activity of the purified, recombinant SODs was determined using the nitroblue tetrazolium (NBT)–formazan method”; on FSD1 it was “The activity of the purified, recombinant SODs was determined using the nitroblue tetrazolium (NBT)–formazan method”. Besides, the “NBT-formazan SOD assay (xanthine/xanthine oxidase)” value at CSD2 (Cu/ZnSOD2) is “The activity of the purified, recombinant SODs was determined using the nitroblue tetrazolium (NBT)–formazan method”.
